Laboratory results published in patent publication US12398111B2, “Triazine compounds and pharmaceutical use thereof” (Japan Tobacco Inc., priority 2014, dated 2025).

Molecular target: T1, human mPGES-1 (Homo sapiens, UniProt O14684)
T1 construct: made in house; host or cells: FreeStyle CHO-S cells (Chinese hamster ovary), transient transfection with pcDNA3.1(+)/human mPGES-1; microsome fraction used
T1 sequence (O14684 1-152): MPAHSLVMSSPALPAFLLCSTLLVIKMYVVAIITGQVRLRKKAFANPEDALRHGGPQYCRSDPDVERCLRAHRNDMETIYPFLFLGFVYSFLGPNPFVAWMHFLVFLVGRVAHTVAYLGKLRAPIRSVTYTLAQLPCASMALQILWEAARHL
Assay: Evaluation of human mPGES-1 enzyme inhibitory activity (PGE2 measured by HTRF, microsome fraction of CHO-S cells expressing human mPGES-1)
Type: biochemical
Details: IC50 value; microsome fraction of CHO-S cells expressing human mPGES-1, PGE2 by HTRF
Method in brief: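 Enzyme source: microsomes from CHO-S cells transfected with human mPGES-1 and cultured 48 hr, diluted to 5 μg/mL protein in reduced GSH (12.5 mmol/L KPB solution). Test articles were in 0.1 mol/L potassium phosphate pH 7.4, final DMSO 2% (v/v). PGE2 formed was quantified by HTRF.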

Compound | IC50
COC(C)(C)C(=O)NCc1ccc(Cl)c(-c2nc(O)nc(-c3ccc(C(F)(F)F)cc3)n2)c1 [Example 1-56] | 0.6 nM
O=C(NCc1ccc(Cl)c(-c2nc(O)nc(-c3ccccc3)n2)c1)C1(CO)CCCCC1 [Example 1-247] | 11 nM
CC(C)C(=O)NCc1ccc(Cl)c(-c2nc(O)nc(-c3ccc(C(F)(F)F)cc3)n2)c1 [Example 1-28] | 0.6 nM
Cc1cccc(C)c1-c1nc(O)nc(-c2ccc(OCC3CC3)cc2)n1 [Example 2-74] | 424 nM
CCc1cc(-c2nc(O)nc(-c3cc(CNC(=O)C(C)(C)C(F)(F)F)ccc3Cl)n2)ccc1F [Example 1-124] | 0.9 nM
CC1CCC(CO)(C(=O)NCc2ccc(Cl)c(-c3nc(O)nc(-c4ccccc4)n3)c2)CC1 (single isomer, unassigned) [Example 1-256] | 98 nM
COc1ccc(F)c(Cl)c1-c1nc(O)nc(-c2ccc(OCc3ccccc3)cc2)n1 [Example 3-12] | 28 nM
Oc1nc(-c2ccc(C(F)(F)F)cc2)nc(-c2c(Cl)cccc2OCc2ccncc2)n1 [Example 2-61] | 92 nM
Cc1ccc(Cl)cc1-c1nc(O)nc(-c2ccc(C(F)(F)F)cc2)n1 [Example 1-3] | 164 nM
CCOc1cc(-c2nc(O)nc(-c3c(C)cccc3C)n2)ccc1Cl [Example 2-52] | 100 nM
CCCC(=O)NCc1ccc(Cl)c(-c2nc(O)nc(-c3ccc(C(F)(F)F)cc3)n2)c1 [Example 1-36] | 0.7 nM
CC(C)CCOc1ccc(-c2nc(O)nc(-c3cc(CNC(=O)C(C)(C)C(F)(F)F)ccc3Cl)n2)cc1 [Example 1-114] | 5.9 nM
Cc1ccc(C)c(-c2nc(O)nc(-c3ccc(C(F)(F)F)cc3)n2)c1 [Example 1-2] | 138 nM
Cc1cc(-c2nc(O)nc(-c3cc(CNC(=O)C(C)(C)C(F)(F)F)ccc3Cl)n2)ccc1Cl [Example 1-112] | 0.9 nM
CN(CCc1ccc(Cl)c(-c2nc(O)nc(-c3ccc(OCC(C)(C)C)cc3)n2)c1)C(=O)C(C)(C)C(F)(F)F [Example 1-227] | 50 nM
CC(C)(C)C(=O)NCc1ccc(Cl)c(-c2nc(O)nc(-c3ccccc3)n2)c1 [Example 1-43] | 2 nM
CN(Cc1ccc(Cl)c(-c2nc(O)nc(-c3ccccc3)n2)c1)C(=O)c1ccccc1 [Example 1-230] | 750 nM
CCN(Cc1ccc(Cl)c(-c2nc(O)nc(-c3ccc(OCC(C)(C)C)cc3)n2)c1)C(=O)C(C)(C)C(F)(F)F [Example 1-235] | 70 nM
Cc1cc(Cl)c(-c2nc(O)nc(-c3ccc(OCC4CC4)cc3)n2)cc1C(=O)N(C)C [Example 3-22] | 6900 nM
Oc1nc(-c2ccc(OCC3CCC3)cc2)nc(-c2c(Cl)cccc2OCc2ccccn2)n1 [Example 2-75] | 3.7 nM
CC(C)Cc1ccc(-c2nc(O)nc(-c3cc(CC(=O)N(C)C(C)(C)C)ccc3Cl)n2)cc1 [Example 1-232] | 521 nM
CCCc1cccc(-c2nc(O)nc(-c3cc(CNC(=O)[C@@](C)(OC)C(F)(F)F)ccc3Cl)n2)c1 [Example 1-104] | 1.5 nM
COC(C)(C)C(=O)NCc1ccc(Cl)c(-c2nc(O)nc(-c3cccc(C(C)(C)C)c3)n2)c1 [Example 1-84] | 0.6 nM
Oc1nc(-c2ccc(C#Cc3ccccc3)cc2)nc(-c2c(OCc3ccccn3)cccc2C(F)(F)F)n1 [Example 2-95] | 5 nM

Compound | IC50
NC(=O)c1ccc(Cl)c(-c2nc(O)nc(-c3ccc(OCC4CC4)cc3)n2)c1 [Example 1-193] | 8700 nM
CC1(COc2ccc(-c3nc(O)nc(-c4cc(CNC(=O)C(C)(C)C(F)(F)F)ccc4Cl)n3)cc2)CCC1 [Example 1-143] | 1 nM
CCc1cc(-c2nc(O)nc(-c3cc(CNC(=O)[C@@](C)(OC)C(F)(F)F)ccc3Cl)n2)ccc1F [Example 1-151] | 0.4 nM
CCCCc1ccc(-c2nc(O)nc(-c3cc(CNC(=O)C(C)(C)C(F)(F)F)ccc3Cl)n2)cc1 [Example 1-180] | 4.1 nM
Cc1cc(-c2nc(O)nc(-c3cc(CNC(=O)C(C)(C)C(F)(F)F)ccc3Cl)n2)ccc1F [Example 1-186] | 1.4 nM
Cc1cccc(C#Cc2ccc(-c3nc(O)nc(-c4c(OCc5ccccn5)cccc4C(F)(F)F)n3)cc2)c1 [Example 2-101] | 6.5 nM
CCCOc1ccc(-c2nc(O)nc(-c3cc(CN4CC(C)(C)C4=O)ccc3Cl)n2)cc1 [Example 1-158] | 12 nM
Cc1cc(C)c(-c2nc(O)nc(-c3ccc(C(F)(F)F)cc3)n2)c(C)c1 [Example 3-1] | 484 nM
CC(C)(C)C(=O)NCc1ccc(Cl)c(-c2nc(O)nc(-c3cccc(C(F)(F)F)c3)n2)c1 [Example 1-54] | 0.9 nM
CC(C)Oc1ccc(-c2nc(O)nc(-c3cc(CNC(=O)C(C)(C)C)ccc3Cl)n2)cc1 [Example 1-82] | 0.8 nM
O=C(O)c1ccc(Cl)c(-c2nc(O)nc(-c3ccc(C(F)(F)F)cc3)n2)c1 [Example 1-8] | 27000 nM
CC(C)Oc1ccc(-c2nc(O)nc(-c3cc(CNC(=O)C(C)(C)C(F)(F)F)ccc3Cl)n2)cc1 [Example 1-140] | 0.5 nM
Cc1ccnc(COc2cccc(C(F)(F)F)c2-c2nc(O)nc(-c3ccc(C#Cc4ccccc4)cc3)n2)c1 [Example 2-113] | 5.1 nM
CC(C)(C(=O)NCc1ccc(Cl)c(-c2nc(O)nc(-c3ccc(OC4CCC4)cc3)n2)c1)C(F)(F)F [Example 1-141] | 1.1 nM
CSc1ccc(-c2nc(O)nc(-c3cc(CNC(=O)C(C)(C)C(F)(F)F)ccc3Cl)n2)cc1 [Example 1-115] | 0.6 nM
CN(C)C(=O)c1ccc(Cl)c(-c2nc(O)nc(-c3ccc(OCC4CC4)cc3)n2)c1 [Example 1-195] | 6000 nM
CCCCNC(=O)c1cc(-c2nc(O)nc(-c3ccc(OCC4CC4)cc3)n2)c(Cl)cc1C [Example 3-23] | 41 nM
Cc1cccc(C)c1-c1nc(O)nc(-c2ccc(CCc3ccccc3)cc2)n1 [Example 2-12] | 141 nM
O=C(NCc1ccc(Cl)c(-c2nc(O)nc(-c3cccc(C4CC4)c3)n2)c1)C1(C(F)(F)F)CC1 [Example 1-160] | 1.4 nM
CC(C)(C)COc1ccc(-c2nc(O)nc(-c3cc(CNC(=O)C(C)(C)C(F)(F)F)ccc3C(F)(F)F)n2)cc1 [Example 1-208] | 16 nM
CN(C)C(=O)COc1cccc(Cl)c1-c1nc(O)nc(-c2ccc(OCC3CC3)cc2)n1 [Example 2-90] | 2100 nM
Cc1cccc(C)c1-c1nc(O)nc(-c2ccc(O[C@H](C)c3ccccc3)cc2)n1 [Example 2-44] | 563 nM
CN(Cc1ccc(Cl)c(-c2nc(O)nc(-c3ccccc3)n2)c1)C(=O)C1CCCC1 [Example 1-228] | 672 nM
CC1(C)CCC(Oc2ccc(-c3nc(O)nc(-c4cc(CNC(=O)C(C)(C)C(F)(F)F)ccc4Cl)n3)cc2)CC1 [Example 1-179] | 16 nM

Compound | IC50
CC1CCC2(CC1)CN(Cc1ccc(Cl)c(-c3nc(O)nc(-c4ccccc4)n3)c1)C2=O (single isomer, unassigned) [Example 1-257] | 17 nM
COc1cccc(-c2nc(O)nc(-c3c(C)cccc3C)n2)c1 [Example 2-14] | 14300 nM
CO[C@](C)(C(=O)NCc1ccc(Cl)c(-c2nc(O)nc(-c3cccc(C(C)C)c3)n2)c1)C(F)(F)F [Example 1-108] | 0.6 nM
Oc1nc(-c2ccc(C#CC3CC3)cc2)nc(-c2c(Cl)cccc2OCc2ccccn2)n1 [Example 2-82] | 1.7 nM
Cc1ccc(-c2nc(O)nc(-c3c(C)cccc3C)n2)cc1 [Example 2-26] | 2700 nM
CC(C)(C)c1cccc(-c2nc(O)nc(-c3cc(CNC(=O)C4(C(F)(F)F)CCCC4)ccc3Cl)n2)c1 [Example 1-80] | 3.1 nM
Cc1cccc(C)c1-c1nc(O)nc(-c2ccc(C#Cc3ccccc3)cc2)n1 [Example 2-11] | 6 nM
O=C1N(Cc2ccc(Cl)c(-c3nc(O)nc(-c4ccccc4)n3)c2)CC12CCCCC2 [Example 1-248] | 16 nM
OCCOc1cccc(Cl)c1-c1nc(O)nc(-c2ccc(C(F)(F)F)cc2)n1 [Example 2-22] | 219 nM
CO[C@](C)(C(=O)N(C)Cc1ccc(Cl)c(-c2nc(O)nc(-c3ccccc3)n2)c1)C(F)(F)F [Example 1-242] | 82 nM
CC(C)(C)C(=O)NCc1ccc(Cl)c(-c2nc(O)nc(-c3cccc(OC(F)(F)F)c3)n2)c1 [Example 1-61] | 0.7 nM
CC(C)OC(=O)NCc1ccc(Cl)c(-c2nc(O)nc(-c3cccc(C(C)(C)C)c3)n2)c1 [Example 1-83] | 11 nM
CO[C@](C)(C(=O)NC(C)c1ccc(Cl)c(-c2nc(O)nc(-c3ccc(F)c(C)c3)n2)c1)C(F)(F)F (single isomer, unassigned) [Example 1-189] | 1100 nM
Cc1cccc(COc2cccc(C(F)(F)F)c2-c2nc(O)nc(-c3ccc(C#Cc4ccccc4OC(F)(F)F)cc3)n2)n1 [Example 2-129] | 32 nM
COc1cccc(Cl)c1-c1nc(O)nc(-c2ccc(OCc3ccccc3)cc2)n1 [Example 2-35] | 17 nM
CC1(C)CCN(Cc2ccc(Cl)c(-c3nc(O)nc(-c4ccccc4)n3)c2)C1=O [Example 1-240] | 428 nM
CNC(=O)c1ccc(Cl)c(-c2nc(O)nc(-c3ccc(OCC4CC4)cc3)n2)c1 [Example 1-194] | 10500 nM
CCCc1cccc(-c2nc(O)nc(-c3cc(CNC(=O)C(C)(C)C)ccc3Cl)n2)c1 [Example 1-50] | 0.9 nM
Cc1cccc(C)c1-c1nc(O)nc(-c2ccc(OC(C)C)cc2)n1 [Example 2-38] | 1000 nM
CO[C@](C)(C(=O)NCc1ccc(Cl)c(-c2nc(O)nc(-c3ccc(C(F)(F)F)cc3)n2)c1)C(F)(F)F [Example 1-126] | 0.8 nM
CS(=O)(=O)NCc1ccc(Cl)c(-c2nc(O)nc(-c3ccc(C(F)(F)F)cc3)n2)c1 [Example 1-20] | 1.6 nM
COc1c(CO)ccc(Cl)c1-c1nc(O)nc(-c2ccc(C(F)(F)F)cc2)n1 [Example 3-2] | 148 nM
